Test results: US8569336B2, “Compounds for the treatment of inflammatory disorders” (priority 2008, dated 2013)
Like-named read-outs stand apart in the source and are kept apart here.

Tests used:
[1] = test system: TNF-α production from human whole blood; experiment: Inhibition of TNF-α production from human whole blood (hWBA), LPS stimulated, ELISA; assay type: cell-based; conditions: TNF-α by ELISA, read-out: hWBA (IC50)
[2] = biological target: T1, purified catalytic domain of recombinant human TACE (rhTACEc) (Homo sapiens, UniProt P78536, N452Q/S266A); experiment: TACE kinetic assay: cleavage of internally quenched peptide substrate TNF-FRET 2 (Ki); assay type: biochemical; conditions: TNF-FRET 2 substrate
T1 construct: 6xHis (C); made in house; host or cells: baculovirus/Hi5 insect cells
T1 sequence (P78536 215-477 S266A/N452Q): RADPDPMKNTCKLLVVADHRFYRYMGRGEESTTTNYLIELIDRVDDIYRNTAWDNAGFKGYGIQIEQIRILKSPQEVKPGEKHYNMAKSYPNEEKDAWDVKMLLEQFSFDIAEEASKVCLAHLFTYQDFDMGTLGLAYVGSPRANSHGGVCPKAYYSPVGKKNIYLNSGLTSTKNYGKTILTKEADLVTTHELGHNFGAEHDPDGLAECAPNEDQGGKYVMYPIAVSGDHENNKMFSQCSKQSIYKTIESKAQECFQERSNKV

[3] = Homo sapiens, LPS-stimulated human whole blood
[4] = Homo sapiens, 3.5 h, human whole blood diluted 1:1, LPS stimulated, 3.5 h
[5] = Homo sapiens, human whole blood diluted 1:1, LPS stimulated

SMILES	IC50 [1, 3] [nM]	Ki ([2]; read-out: Ki) [nM]	IC50 [1, 4] [nM]	further results
COC(=O)c1cnc2cc([C@]3(CN4Cc5ccc(OC)cc5C4=O)NC(=O)NC3=O)oc2c1 [Compound 1928]	841	0.52	–	–
COc1ccc2c(c1)C(=O)N(C[C@@]1(c3cc4c(N5CCNCC5)nccc4o3)NC(=O)NC1=O)C2 [Compound 2279]	–	–	234	Ki ([2]; Ki): 2.55 nM
COc1ccc2c(c1)C(=O)N(C[C@@]1(c3cc4cc(NC(N)=O)ccc4o3)NC(=O)NC1=O)C2 [Compound 2221]	–	0.099	143	–
COc1ccc2c(c1)C(=O)N(C[C@@]1(c3cc4nc(NC(=O)[C@@H](C)O)ccc4o3)NC(=O)NC1=O)C2 [Compound 2137]	–	0.36	310	–
COc1ccc2c(c1)C(=O)N(C[C@@]1(c3cc4nc(C5CC5)ccc4o3)NC(=O)NC1=O)C2 [Compound 1508]	2430	0.9	–	–
COc1ccc2c(c1)C(=O)N(C[C@@]1(c3ccc(-c4ccc(C5(C)NC(=O)NC5=O)nc4)cc3)NC(=O)NC1=O)C2 (stereo partly shown) [Compound 2206]	–	0.82	1780	–
O=C1NC(=O)[C@](CN2Cc3ccc(O)c(I)c3C2=O)(c2cc3ncccc3o2)N1 [Compound 1736]	> 10000	53.5	–	–
CCNc1nnc(-c2ccc3cc([C@]4(CN5Cc6ccc(OC)cc6C5=O)NC(=O)NC4=O)oc3c2)o1 [Compound 2193]	–	0.253	170	–
COc1ccc2c(c1)C(=O)N(C[C@@]1(c3cc4cc(/C(=N\O)N5CC[C@H](N(C)C)C5)ccc4o3)NC(=O)NC1=O)C2 [Compound 2488]	–	0.8	–	IC50 [1, 5]: 321 nM
COc1ccc2c(c1)C(=O)N(C[C@@]1(c3cc4cc(-c5cncc(O)c5)ncc4o3)NC(=O)NC1=O)C2 [Compound 2244]	–	0.35	365	–
COc1ccc2c(c1)C(=O)N(C[C@@]1(c3cc4cc(-c5ccc(N(C)C)nc5)ccc4o3)NC(=O)NC1=O)C2 [Compound 2197]	–	0.849	–	IC50 ([1]; human whole blood diluted 1:1, LPS stimulated, 3.5 h): 2710 nM
COCCNC(=O)c1ccc2cc([C@]3(CN4Cc5ccc(OC)cc5C4=O)NC(=O)NC3=O)oc2c1 [Compound 2413]	–	0.6	–	IC50 [1, 5]: 300 nM
COc1ccc2c(c1)C(=O)N(C[C@@]1(c3cc4ncc(CNCc5ccccc5)cc4o3)NC(=O)NC1=O)C2 [Compound 1912]	3200	2.24	–	–
COc1ccc2c(c1)C(=O)N(C[C@@]1(c3cc4nc(-c5c(C)noc5C)ccc4o3)NC(=O)NC1=O)C2 [Compound 1520]	1190	0.5	–	–
COc1ccc2c(c1)C(=O)N(CC1([C@H]3C[C@@H](c4ccccc4)C3)NC(=O)NC1=O)C2 (stereo partly shown) [Compound 1914]	100000	26.1	–	–
COc1ccc2c(c1)C(=O)N(C[C@@]1(c3cc4cc(-c5ccncc5)ccc4o3)NC(=O)NC1=O)C2 [Compound 2194]	–	0.741	1170	–
CCNC(=O)NCc1ccc2oc([C@]3(CN4Cc5ccc(OC)cc5C4=O)NC(=O)NC3=O)cc2c1 [Compound 2485]	–	0.76	–	IC50 [1, 5]: 1990 nM
COc1ccc2c(c1)C(=O)N(C[C@@]1(c3cc4cc(-c5c(C)nn(C)c5C)ccc4o3)NC(=O)NC1=O)C2 [Compound 2213]	–	0.403	1510	–
COC(=O)[C@H](CCCCNC(=O)c1cc2cc([C@]3(CN4Cc5ccc(OC)cc5C4=O)NC(=O)NC3=O)oc2cc1F)NC(=O)CCCC[C@@H]1SCC2NC(=O)NC21 (stereo partly shown) [Compound 1282]	–	0.48	407	–
COc1ccc2c(c1F)C(=O)N(C[C@@]1(c3cc4nc(C(N)=O)ccc4o3)NC(=O)NC1=O)C2 [Compound 1904]	132	0.61	–	–
COc1ccc2c(c1)C(=O)N(C[C@@]1(c3cc4cc(-c5c(N)noc5C)ccc4o3)NC(=O)NC1=O)C2 [Compound 2261]	–	0.347	515	–
COc1ccc2c(c1)C(=O)N(C[C@@]1(c3cc4cncc(Br)c4o3)NC(=O)NC1=O)C2 [Compound 2303]	–	0.312	–	IC50 [1, 5]: 630 nM
COc1ccc2c(c1F)C(=O)N(C[C@@]1(c3cc4cc5sc(N)nc5cc4o3)NC(=O)NC1=O)C2 [Compound 1743]	236	–	–	Ki ([2]; Ki): 0.14 nM
CCN1C[C@@H]2C[C@H]1CN2c1ccc2oc([C@]3(CN4Cc5ccc(OC)c(F)c5C4=O)NC(=O)NC3=O)cc2n1 [Compound 1292]	–	0.86	177	–
COc1ccc2c(c1F)C(=O)N(C[C@@]1(c3cc4nc(N5CCN(C)CC5)c(F)cc4o3)NC(=O)NC1=O)C2 [Compound 1710]	218	1.08	–	–
COc1ccc2c(c1)C(=O)N(C[C@@]1(c3cc4nc(N(CCO)CCN(C)C)ccc4o3)NC(=O)NC1=O)C2 [Compound 1702]	1770	3.96	–	–
